A short description of series [1]: Comparative dissolution profiles of azithromycin polymorph Ik vs. dihydrate, USP Method 2. It counts as physicochemical. The conditions noted are these: for percent dissolved: pH 6 (37° C.), USP Method 2. The protocol: In order to compare the behavior in vitro of the fast dissolving azithromycin polymorph (Formula Ik) with the commercial azithromycin dihydrate product, dissolution profiles have been determined at pH 6.0 at 37° C. The comparative dissolution profiles were determined by USP Method 2, PharmaTest Dissolution Tester, PTW SII; the content of dissolved azithromycin was measured by HPLC.

The nature of a further series: clinical. The conditions noted are these: human, in vivo, 500 mg.
Series [2] is described as follows: Analysis of adverse events observed during human PK study. The series is classed as in vivo.
Series [3] is described as follows: Comparative dissolution profiles of azithromycin monohydrate Ia vs. dihydrate, USP Method 2. It counts as physicochemical. The settings on record: pH 1.2, 3.0, 6.0 and 6.8, 37° C., 900 ml buffer, 100 rpm, FIGS. 1-4. As for the experimental part:
In order to compare the behavior in vitro of the fast dissolving azithromycin monohydrate (Formula Ia) with the commercial azithromycin dihydrate product, dissolution profiles have been determined at pH 1.2, pH 3.0, pH 6.0, and pH 6.8, at 37° C. The comparative dissolution profiles were determined in 900 ml buffer solution, at 100 rpm, by USP Method 2, PharmaTest Dissolution Tester, PTW SII; the content of dissolved azithromycin was measured by HPLC. The data thus obtained are plotted in FIGS. 1-4, respectively.

Series [4] is described as follows: Human pharmacokinetic study, plasma concentration after GI site-specific administration of aqueous suspension. The conditions noted are these: 500 mg aqueous suspension; for ΔIa/dihydrate, AUC / ΔIa/dihydrate, Cmax: Ia relative to dihydrate.
Procedure: (§1) The test was an open, mono-centric, fasted human study. 6 human subjects were studied using a full cross-over experimental design experiment. […] This crossover experiment was repeated a total of three times by intubations of the test subjects: the first involved GI site-specific administration to the stomach, the second involved GI site-specific administration to the duodenum, and the third involved GI site-specific administration to the jejunum.
(§2) The kinetics parameters were determined model-independently and the parameters were determined directly from the measured concentrations.
Series [5] is described as follows: In vivo rat pharmacokinetic study, plasma and whole blood concentration time curves after p.o. administration. The settings on record: rats, 50 mg/kg suspension; for ΔIa/dihydrate, Cmax / ΔIa/dihydrate, AUC(0-12): Ia relative to dihydrate; for ΔIa/dihydrate, AUC(0-12): monohydrate, 50 mg/kg.
Source text: 32 animals (Wistar Han rats, fasted) were studied using a cross-over experimental design experiment. A non-compartmental analysis was used to determine the concentrations of the respective materials in whole blood and plasma as a function of time.
The mark [6] stands for this setting: site-specific administration to duodenum.
[7] abbreviates: site-specific administration to jejunum.
The mark [8] stands for this setting: site-specific administration to stomach.

The results in this text go back to patent US7572773B2, “Single dose fast dissolving azithromycin” (Pliva Hrvatska D.O.O., priority 2003, dated 2009).

As a reminder, the Cmax is the highest concentration seen after dosing.

Procedure for clinical: as §1, §2

`CC[C@H]1OC(=O)[C@H](C)[C@@H](O[C@H]2C[C@@](C)(OC)[C@@H](O)[C@H](C)O2)[C@H](C)[C@@H](O[C@@H]2O[C@H](C)C[C@H](N(C)C)[C@H]2O)[C@](C)(O)C[C@@H](C)CN(C)[C@H](C)[C@@H](O)[C@]1(C)O` [Azithromycin Dihydrate, 9-deoxo-9a-aza-9a-methyl-9a-homoerythromycin A dihydrate]: the percent dissolved in series [1] (5 minutes, listed as Commercial 9-deoxo-9a-aza-9a-methyl-9a-homoerythromycin A Dihydrate, dihydrate) was determined as 14.5%; in series [1] (10 minutes, listed as Commercial 9-deoxo-9a-aza-9a-methyl-9a-homoerythromycin A Dihydrate, dihydrate), 27.3%; in series [1] (20 minutes, listed as Commercial 9-deoxo-9a-aza-9a-methyl-9a-homoerythromycin A Dihydrate, dihydrate) it was 44.2%; in series [1] (45 minutes, listed as Commercial 9-deoxo-9a-aza-9a-methyl-9a-homoerythromycin A Dihydrate, dihydrate) it was 69.1%. For the same compound, the highest concentration (Cmax) in the series “clinical” came out at 94 ng/mL. The “adverse events with a possible causal relationship” value in series [2] (human, in vivo) is given as 3 events.

For the compound `CC[C@H]1OC(=O)[C@H](C)[C@@H](O[C@H]2C[C@@](C)(OC)[C@@H](O)[C@H](C)O2)[C@H](C)[C@@H](O[C@@H]2O[C@H](C)C[C@H](N(C)C)[C@H]2O)[C@](C)(O)C[C@@H](C)CN(C)[C@H](C)[C@@H](O)[C@]1(C)O` [Pseudopolymorph Ik, 9-deoxo-9a-aza-9a-methyl-9a-homoerythromycin A Pseudopolymorph Ik], the percent dissolved was 99.8% in series [1] (5 minutes), 99.9% in series [1] (10 minutes), 97.1% in series [1] (20 minutes) and 97.6% in series [1] (45 minutes). Also, in series [1] (pH 6.0, 37° C.), the “dissolution profile compared to commercially available azithromycin dihydrate” value was “dissolves faster”.

On to `CC[C@H]1OC(=O)[C@H](C)[C@@H](O[C@H]2C[C@@](C)(OC)[C@@H](O)[C@H](C)O2)[C@H](C)[C@@H](O[C@@H]2O[C@H](C)C[C@H](N(C)C)[C@H]2O)[C@](C)(O)C[C@@H](C)CN(C)[C@H](C)[C@@H](O)[C@]1(C)O.O` [azithromycin monohydrate], for which the “dissolution profile compared to commercially available azithromycin dihydrate” value in series [3] was “dissolves faster”. In addition, the figures for the “ΔIa/dihydrate, AUC” value in series [4] (duodenum), in series [4] (jejunum) and in series [4] (stomach) were −13%, “+98%” and “+19%”, respectively. Besides, the “ΔIa/dihydrate, Cmax” value in series [4] (duodenum) is “+10%”; in series [4] (jejunum), “+60%”; in series [4] (stomach) it was “+52%”; in series [5] (plasma), “+37%”; in series [5] (whole blood) it was “+97%”. The values for the AUC in series [4] (setting [6]), in series [4] (setting [7]) and in series [4] (setting [8]) were 719 nghr/ml, 836 nghr/ml and 813 nghr/ml, respectively. Besides, the Cmax in series [4] (setting [6]) turned out to be 129 ng/mL; in series [4] (setting [7]), 99 ng/mL; in series [4] (setting [8]), 143 ng/mL; in series [5] (plasma) it was 1006 ng/mL; in series [5] (whole blood) it was 5061 ng/mL. The results for the “AUC(0-12)” value in series [5] (plasma) and in series [5] (whole blood) were 5148 nghr/ml and 21204 nghr/ml, respectively. Further, the “ΔIa/dihydrate, AUC(0-12)” value in series [5] (plasma, listed as azithromycin monohydrate Ia) is recorded as ~29%; in series [5] (plasma) it was “+29%”; in series [5] (whole blood, listed as azithromycin monohydrate Ia), “approximately 27%”; in series [5] (whole blood), “+27%”. Besides, the “incidence of adverse effects compared to azithromycin dihydrate product” value in series [2] (human PK study, single dose administration of a comparable amount) was “lower incidence of adverse effects”.
